Values quoted from earlier work as cited in patent US20260324642A1, “COMPOSITION, PEST CONTROL PREPARATION, AND PEST CONTROL METHOD” (priority 2023, published 2026).

Conditions: known activity, background art

Compound	insecticidal activity
C/C=C(/C)C(=O)O[C@H]1CC[C@@]2(C)[C@@H]3CC[C@H]4[C@]5(O)C[C@H](O)[C@@]6(O)[C@@H](CN7C[C@@H](C)CC[C@H]7[C@@]6(C)O)[C@]5(O)C[C@@]42O[C@]13O [Cevadine]	known to have insecticidal activity
COc1ccc(C(=O)O[C@H]2CC[C@@]3(C)[C@@H]4CC[C@H]5[C@]6(O)C[C@H](O)[C@@]7(O)[C@@H](CN8C[C@@H](C)CC[C@H]8[C@@]7(C)O)[C@]6(O)C[C@@]53O[C@]24O)cc1OC [Veratridine]	known to have insecticidal activity
